The record followed here is patent US9249125B2, “Pyrazole derivatives as p38 MAP inhibitors” (RESPIVERT LIMITED, priority 2012, dated 2016).

The IC50 is the point on the concentration scale where inhibition reaches its midpoint.

In one data set the target is GSK3α (Homo sapiens (Human), UniProt P49840). Put plainly: GSK 3α enzyme inhibition (FRET, Z-LYTE). The data set is classed as biochemical. In a few lines:
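Phosphorylation was read as the donor (coumarin) to acceptor (fluorescein) ratio after a 1 hr protease step destroying non-phosphorylated peptide. Before this, compound (4–0.004 μg/mL stocks) sat 2 hr at RT with GSK3α (500 ng/mL stock), followed by 1 hr kinase reaction with 8 μM peptide and 40 μM ATP stocks.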

Data set [1] has as its system LPS-induced TNFα release in d-U937 cells. The experiment in a line: LPS-induced TNFα release in d-U937 cells. The data set is classed as cell-based. The settings on record: Homo sapiens, dU937, relative to 10 μg/mL BIRB796, read-out: LPS Induced Release of Cytokine in d-937 Cells TNFα REC50. In a few lines:
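First, U937 monocytes undergo PMA treatment (100 ng/mL) for 48 to 72 hr to become macrophage-type. Next, compound at final concentrations is added for 2 hr, followed by LPS at 0.1 μg/mL for 4 hr. Finally, cytokines in the supernatant are quantified by ELISA against vehicle-treated cells.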

The test system of data set [2] is Poly I:C-induced ICAM-1 expression in BEAS2B cells. Put plainly: Poly I:C-induced ICAM-1 expression in BEAS2B cells. The note with it: Homo sapiens, BEAS-2B, read-out: Poly IC induced ICAM1 in BEAS2B IC50. The data set is classed as cell-based. In outline: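 Cell-based ELISA read at 450 nm minus 655 nm, divided by crystal violet OD595 to normalize for cell number, gave ICAM-1 levels. Readout was taken 18 hr after poly I:C (1 μg/mL, Oligofectamine) transfection of human bronchial BEAS2B cells pretreated 2 hr with test compound.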

In a further data set the test system is d-U937 cells. Put plainly: Cell viability: MTT assay. The data set is classed as cell-based, human. The settings on record: 1 μg/mL. In outline: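 MTT read-out (1 h, absorbance 550 nm) on d-U937 cells after pre-incubation with 1 or 10 μg/mL compound under two regimes: 4 h, 5% FCS, or 24 h, 10% FCS RPMI1640. Values are percent loss of viability relative to vehicle (0.5% DMSO), so increases are reported as negative.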

The subject of data set [3] is LPS-induced IL-8 release in d-U937 cells. Put plainly: LPS-induced IL-8 release in d-U937 cells. The settings on record: Homo sapiens, dU937, read-out: LPS Induced Release of Cytokine in d-937 Cells IL-8 IC50. The data set is classed as cell-based. In outline: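 Read-out: TNFα and IL-8 released into supernatant, sandwich ELISA, expressed as inhibition versus vehicle at each dose and fitted to give REC50. Cells were PMA-differentiated U937 (100 ng/mL, 48–72 hr), compound-exposed 2 hr before a 4 hr LPS stimulus (0.1 μg/mL).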

The target of a further data set is Syk (Homo sapiens (Human), UniProt P43405). The experiment in a line: Syk enzyme inhibition (FRET, Z-LYTE). The data set is classed as biochemical. In a few lines: (§1)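 Z-LYTE FRET kinase assay: enzyme (3000 or 2000 ng/mL stock, respectively) preincubated 2 h at RT with compound (4–0.004 μg/mL stocks), then FRET peptide plus ATP (800 μM stock for c-Src, 60 μM for Syk) added for 1 h. Protease development 1 h; phosphorylation from coumarin/fluorescein emission ratio.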

Another data set deals with cSrc (Homo sapiens (Human), UniProt P12931). Put plainly: c-Src enzyme inhibition (FRET, Z-LYTE). The data set is classed as biochemical. In a few lines:
as §1

The next data set concerns the target p38 MAPKα (Homo sapiens (Human), UniProt Q16539). The experiment in a line: p38 MAPKα enzyme inhibition (FRET, Z-LYTE). The data set is classed as biochemical.

Chain of GSK3α (P49840 whole entry): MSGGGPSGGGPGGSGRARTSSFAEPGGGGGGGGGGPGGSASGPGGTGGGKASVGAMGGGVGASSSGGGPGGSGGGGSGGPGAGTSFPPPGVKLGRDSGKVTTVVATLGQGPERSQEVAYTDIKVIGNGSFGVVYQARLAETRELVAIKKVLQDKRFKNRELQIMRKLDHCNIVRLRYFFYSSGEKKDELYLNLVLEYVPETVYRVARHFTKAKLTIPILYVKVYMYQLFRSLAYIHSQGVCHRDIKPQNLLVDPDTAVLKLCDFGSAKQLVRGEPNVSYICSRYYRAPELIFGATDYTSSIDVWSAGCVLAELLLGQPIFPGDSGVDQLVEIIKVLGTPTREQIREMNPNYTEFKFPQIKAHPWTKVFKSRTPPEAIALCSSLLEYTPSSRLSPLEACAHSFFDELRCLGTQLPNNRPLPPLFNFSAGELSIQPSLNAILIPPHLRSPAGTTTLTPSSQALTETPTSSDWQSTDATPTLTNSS
Chain of cSrc (P12931 whole entry, looked up): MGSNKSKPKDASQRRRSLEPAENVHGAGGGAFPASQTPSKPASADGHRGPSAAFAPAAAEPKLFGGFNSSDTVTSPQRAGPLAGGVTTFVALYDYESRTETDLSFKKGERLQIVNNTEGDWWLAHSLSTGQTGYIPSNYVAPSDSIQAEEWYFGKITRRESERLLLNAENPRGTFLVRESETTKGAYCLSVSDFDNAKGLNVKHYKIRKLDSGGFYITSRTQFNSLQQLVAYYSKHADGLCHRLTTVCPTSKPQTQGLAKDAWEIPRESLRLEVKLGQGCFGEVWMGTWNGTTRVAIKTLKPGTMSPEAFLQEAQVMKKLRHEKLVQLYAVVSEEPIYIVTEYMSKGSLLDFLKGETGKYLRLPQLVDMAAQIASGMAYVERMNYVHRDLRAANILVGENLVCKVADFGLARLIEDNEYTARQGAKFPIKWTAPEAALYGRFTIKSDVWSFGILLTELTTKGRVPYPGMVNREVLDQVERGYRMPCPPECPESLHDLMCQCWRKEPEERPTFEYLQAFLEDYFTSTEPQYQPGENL
Chain of p38 MAPKα (Q16539 whole entry): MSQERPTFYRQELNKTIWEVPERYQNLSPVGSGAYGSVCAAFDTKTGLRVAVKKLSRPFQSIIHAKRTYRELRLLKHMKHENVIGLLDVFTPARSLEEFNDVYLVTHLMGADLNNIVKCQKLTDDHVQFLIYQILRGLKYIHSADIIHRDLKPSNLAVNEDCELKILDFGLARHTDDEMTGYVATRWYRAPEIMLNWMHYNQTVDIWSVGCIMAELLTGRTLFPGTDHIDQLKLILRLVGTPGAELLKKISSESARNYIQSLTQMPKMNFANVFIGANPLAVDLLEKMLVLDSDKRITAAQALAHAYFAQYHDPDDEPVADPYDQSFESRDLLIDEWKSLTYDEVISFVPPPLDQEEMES

Consider `CC(C)(C)c1cc(NC(=O)Nc2ccc(Oc3ccnc(Nc4ccc5[nH]ncc5c4)n3)c3ccccc23)n(-c2cccc(CN3CCCC3=O)c2)n1` [Example 49, 1-(4-((2-((1H-indazol-5-yl)amino)pyrimidin-4-yl)oxy)naphthalen-1-yl)-3-(3-(tert-butyl)-1-(3-((2-oxopyrrolidin-1-yl)methyl)phenyl)-1H-pyrazol-5-yl)urea], for which the IC50 on GSK3α was 1350 nM; in data set [2], 2.2 nM; in data set [3], 9.7 nM; on Syk, 12 nM; against cSrc, 5 nM; against p38 MAPKα it was 29 nM. Also, the EC50 in data set [1] is 2.5 nM. In addition, in the data set on d-U937 cells, the “MTT Assay Cell viability at time point in d-U937 cells 4 h” value is “−ve (−ve and +ve indicate that the value is below and above respectively, the no significant effect threshold, defined as 30% inhibition at 1 μg/mL at the time point indicated.)”. In addition, the “MTT Assay Cell viability at time point in d-U937 cells 24 h” value in the data set with d-U937 cells was “−ve (−ve and +ve indicate that the value is below and above respectively, the no significant effect threshold, defined as 30% inhibition at 1 μg/mL at the time point indicated.)”.

Turning to `COc1ccc(-n2nc(C(C)(C)C)cc2NC(=O)Nc2ccc(Oc3ccnc(Nc4ccc5c(cnn5CCN5CCOCC5)c4)n3)c3ccccc23)cc1` [Example 43, 1-(3-(tert-butyl)-1-(4-methoxyphenyl)-1H-pyrazol-5-yl)-3-(4-((2-((1-(2-morpholinoethyl)-1H-indazol-5-yl)amino)pyrimidin-4-yl)oxy)naphthalen-1-yl)urea], the IC50 stood at 485 nM against GSK3α; 2.4 nM in data set [2]; 1.8 nM in data set [3]; 21 nM at Syk; 2 nM on cSrc; 15 nM at p38 MAPKα. Moreover, in data set [1], the EC50 amounted to 1.3 nM. Further, the “MTT Assay Cell viability at time point in d-U937 cells 4 h” value in the data set with d-U937 cells was “−ve (−ve and +ve indicate that the value is below and above respectively, the no significant effect threshold, defined as 30% inhibition at 1 μg/mL at the time point indicated.)”. The “MTT Assay Cell viability at time point in d-U937 cells 24 h” value in the data set on d-U937 cells is “−ve (−ve and +ve indicate that the value is below and above respectively, the no significant effect threshold, defined as 30% inhibition at 1 μg/mL at the time point indicated.)”.

`Cc1ccc(-n2nc(C(C)(C)C)cc2NC(=O)Nc2ccc(Oc3ccnc(Nc4ccc5c(c4)CC(=O)N5)n3)c3ccccc23)cc1` [Example 19, 1-(3-(tert-butyl)-1-(p-tolyl)-1H-pyrazol-5-yl)-3-(4-((2-((2-oxoindolin-5-yl)amino)pyrimidin-4-yl)oxy)naphthalen-1-yl)urea]: the IC50 against GSK3α amounted to 1010 nM; in data set [2], 2.4 nM; in data set [3], 1.9 nM; on Syk, 32 nM; against cSrc, 7 nM; against p38 MAPKα it was 12 nM. Moreover, the EC50 in data set [1] was 1.8 nM. For the same compound, the “MTT Assay Cell viability at time point in d-U937 cells 4 h” value in the data set on d-U937 cells was “−ve (−ve and +ve indicate that the value is below and above respectively, the no significant effect threshold, defined as 30% inhibition at 1 μg/mL at the time point indicated.)”. Further, in the data set on d-U937 cells, the “MTT Assay Cell viability at time point in d-U937 cells 24 h” value is “−ve (−ve and +ve indicate that the value is below and above respectively, the no significant effect threshold, defined as 30% inhibition at 1 μg/mL at the time point indicated.)”.

In the case of `Cc1n[nH]c2cc(Nc3nccc(Oc4ccc(NC(=O)Nc5cc(C(C)(C)C)nn5-c5ccc(OCCN6CCOCC6)cc5)c5ccccc45)n3)ccc12` [Example 71, 1-(3-(tert-butyl)-1-(4-(2-morpholinoethoxy)phenyl)-1H-pyrazol-5-yl)-3-(4-((2-((3-methyl-1H-indazol-6-yl)amino)pyrimidin-4-yl)oxy)naphthalen-1-yl)urea], the 50% inhibitory concentration (IC50) is 3440 nM at GSK3α; 2.2 nM in data set [2]; more than 1330 nM in data set [3]; 9 nM against Syk; 12 nM against cSrc; 269 nM against p38 MAPKα. The EC50 in data set [1] was determined as 11.1 nM. Moreover, the “MTT Assay Cell viability at time point in d-U937 cells 4 h” value in the data set on d-U937 cells was “−ve (−ve and +ve indicate that the value is below and above respectively, the no significant effect threshold, defined as 30% inhibition at 1 μg/mL at the time point indicated.)”. Further, the “MTT Assay Cell viability at time point in d-U937 cells 24 h” value in the data set with d-U937 cells was “−ve (−ve and +ve indicate that the value is below and above respectively, the no significant effect threshold, defined as 30% inhibition at 1 μg/mL at the time point indicated.)”.

In the case of `Cc1ccc(-n2nc(C(C)(C)C)cc2NC(=O)Nc2ccc(Oc3ccnc(Nc4cnc5[nH]ncc5c4)n3)c3ccccc23)cc1` [Example 6, 1-(4-((2-((1H-Pyrazolo[3,4-b]pyridin-5-yl)amino)pyrimidin-4-yl)oxy)naphthalen-1-yl)-3-(3-(tert-butyl)-1-(p-tolyl)-1H-pyrazol-5-yl)urea], the half-inhibitory concentration (IC50) at GSK3α was more than 16000 nM; in data set [2], 1.7 nM; in data set [3], 5.3 nM; on Syk, 162 nM; on cSrc, 14 nM; against p38 MAPKα it was 177 nM. The EC50 in data set [1] worked out at 1.6 nM. Further, in the data set with d-U937 cells, the “MTT Assay Cell viability at time point in d-U937 cells 4 h” value is “−ve (−ve and +ve indicate that the value is below and above respectively, the no significant effect threshold, defined as 30% inhibition at 1 μg/mL at the time point indicated.)”. Moreover, the “MTT Assay Cell viability at time point in d-U937 cells 24 h” value in the data set with d-U937 cells was “−ve (−ve and +ve indicate that the value is below and above respectively, the no significant effect threshold, defined as 30% inhibition at 1 μg/mL at the time point indicated.)”.

`CC(C)(C)c1cc(NC(=O)Nc2ccc(Oc3ccnc(Nc4ccc5[nH]ccc5c4)n3)c3ccccc23)n(-c2cccc(CN3CCCC3=O)c2)n1` [Example 48, 1-(4-((2-((1H-indol-5-yl)amino)pyrimidin-4-yl)oxy)naphthalen-1-yl)-3-(3-(tert-butyl)-1-(3-((2-oxopyrrolidin-1-yl)methyl)phenyl)-1H-pyrazol-5-yl)urea]: the IC50 at GSK3α was more than 1420 nM; in data set [2] it was 6.9 nM; in data set [3], 16.6 nM; against Syk, 18 nM; at cSrc, 4 nM; at p38 MAPKα, 70 nM. Besides, the EC50 in data set [1] stood at 5.3 nM. Moreover, the “MTT Assay Cell viability at time point in d-U937 cells 4 h” value with d-U937 cells is “−ve (−ve and +ve indicate that the value is below and above respectively, the no significant effect threshold, defined as 30% inhibition at 1 μg/mL at the time point indicated.)”. Besides, the “MTT Assay Cell viability at time point in d-U937 cells 24 h” value with d-U937 cells is “−ve (−ve and +ve indicate that the value is below and above respectively, the no significant effect threshold, defined as 30% inhibition at 1 μg/mL at the time point indicated.)”.

On to `CC(C)c1cc(NC(=O)Nc2ccc(Oc3ccnc(Nc4ccc5[nH]ncc5c4)n3)c3ccccc23)n(-c2ccc(OCCN3CCOCC3)cc2)n1` [Example 69, 1-(4-((2-((1H-indazol-5-yl)amino)pyrimidin-4-yl)oxy)naphthalen-1-yl)-3-(3-isopropyl-1-(4-(2-morpholinoethoxy)phenyl)-1H-pyrazol-5-yl)urea], for which the IC50 against GSK3α was 1280 nM; in data set [2], 8.1 nM; in data set [3] it was 3.4 nM; on Syk, 5 nM; at cSrc, 3 nM; against p38 MAPKα, 18 nM. The EC50 in data set [1] amounted to 0.4 nM. The “MTT Assay Cell viability at time point in d-U937 cells 4 h” value with d-U937 cells is “−ve (−ve and +ve indicate that the value is below and above respectively, the no significant effect threshold, defined as 30% inhibition at 1 μg/mL at the time point indicated.)”. Besides, the “MTT Assay Cell viability at time point in d-U937 cells 24 h” value with d-U937 cells is “−ve (−ve and +ve indicate that the value is below and above respectively, the no significant effect threshold, defined as 30% inhibition at 1 μg/mL at the time point indicated.)”.
